Test results as given in PubChem BioAssay (NCI).
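Following 48 hours of exposure in 96-well plates, responses at five concentrations were used to interpolate endpoints linearly. Abbreviation: GI50, concentration required for 50% inhibition of growth. At the TGI there is no net growth.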

Columns and labels:
Assay in all cases: NCI-60 cell line screen, 48 h
HCT-116 colon = test system: HCT-116 colon
NCI/ADR-RES ovarian = test system: NCI/ADR-RES ovarian
DU-145 prostate = test system: DU-145 prostate
HOP-62 NSCLC = test system: HOP-62 NSCLC
NCI-H226 lung = test system: NCI-H226 lung
PC-3 prostate = test system: PC-3 prostate
HT29 colon = test system: HT29 colon
BT-549 breast = test system: BT-549 breast
OVCAR-3 ovarian = test system: OVCAR-3 ovarian
MOLT-4 leukemia = test system: MOLT-4 leukemia

SMILES	TGI (HCT-116 colon) [µM]	TGI (NCI/ADR-RES ovarian) [µM]	TGI (DU-145 prostate) [µM]	TGI (HOP-62 NSCLC) [µM]	TGI (NCI-H226 lung) [µM]	TGI (PC-3 prostate) [µM]	TGI (HT29 colon) [µM]	TGI (BT-549 breast) [µM]	TGI (OVCAR-3 ovarian) [µM]	TGI (MOLT-4 leukemia) [µM]	GI50 (HCT-116 colon) [µM]	GI50 (NCI/ADR-RES ovarian) [µM]	GI50 (DU-145 prostate) [µM]	GI50 (HOP-62 NSCLC) [µM]	GI50 (NCI-H226 lung) [µM]	GI50 (PC-3 prostate) [µM]	GI50 (HT29 colon) [µM]	GI50 (OVCAR-3 ovarian) [µM]	GI50 (MOLT-4 leukemia) [µM]	GI50 (BT-549 breast) [µM]
CC(=O)[C@H]1CC[C@H]2[C@@H]3CCC4=CC(=O)CC[C@]4(C)[C@H]3CC[C@]12C	28.5	31.3	94.3	45.4	45	39.3	29.7	32.1	35	35.2	–	–	–	–	–	–	–	–	–	–
NC(Cc1ccccc1)=NCC(=O)O	> 100	> 100	> 100	> 100	> 100	> 100	> 100	> 100	> 100	> 100	–	–	–	–	–	–	–	–	–	–
O=C(O)CS(=O)c1ccc2c3c(cccc13)C(=O)c1ccccc1-2 (centres undefined)	> 100	> 100	> 100	> 100	> 100	> 100	> 100	> 100	> 100	–	–	–	–	–	–	–	–	–	–	–
Cc1ccc2ccc(=O)oc2c1	> 100	> 100	> 100	> 100	> 100	> 100	> 100	> 100	> 100	> 100	–	–	–	–	–	–	–	–	–	–
O=C(Nc1ccc(-n2cc(-c3ccncc3)c(-c3ccc(O)c(Cl)c3)n2)cc1)c1cc(Cl)cc(Cl)c1	> 32.5	> 32.5	> 32.5	> 32.5	> 32.5	> 32.5	5.11	–	> 32.5	> 32.5	1.57	1.92	2.17	2.87	> 32.5	1.96	1.01	1.91	1.29	–
O=C(O)CCC(C(=O)O)N1C(=O)c2ccccc2C1=O (centres undefined)	> 100	> 100	> 100	> 100	> 100	> 100	> 100	> 100	> 100	–	–	–	–	–	–	–	–	–	–	–
CCOC(O)C(F)(F)F (centres undefined)	> 100	> 100	> 100	–	> 100	> 100	> 100	–	> 100	> 100	–	–	–	–	–	–	–	–	–	–
COc1cc(C(=O)O[C@H](C(=O)NCCNC(=O)[C@@H](OC(=O)c2cc(OC)cc3c(C)cccc23)[C@]2(C)CO2)[C@]2(C)CO2)c2cccc(C)c2c1	0.298	1.52	1.46	0.919	2.11	–	29.1	3.39	7.63	> 100	< 0.0285	0.25	0.257	0.16	0.66	0.109	< 0.0198	0.721	< 0.01	0.335
O=C(Nc1ccc(Cl)cc1)c1cccc([N+](=O)[O-])c1O	20	–	–	9.13	7.95	–	> 73.1	–	9.09	10.1	–	–	–	–	–	–	–	–	–	–
